Measurements from US20260078122A1, “INDAZOLE COMPOUNDS AS PKMYT1 KINASE INHIBITORS” (Hoffmann-La Roche Inc., priority 2023, published 2026).

Target: T1, recombinant human Myt1 (full length PKMYT1) (Homo sapiens, UniProt Q99640)
T1 sequence (Q99640 1-499): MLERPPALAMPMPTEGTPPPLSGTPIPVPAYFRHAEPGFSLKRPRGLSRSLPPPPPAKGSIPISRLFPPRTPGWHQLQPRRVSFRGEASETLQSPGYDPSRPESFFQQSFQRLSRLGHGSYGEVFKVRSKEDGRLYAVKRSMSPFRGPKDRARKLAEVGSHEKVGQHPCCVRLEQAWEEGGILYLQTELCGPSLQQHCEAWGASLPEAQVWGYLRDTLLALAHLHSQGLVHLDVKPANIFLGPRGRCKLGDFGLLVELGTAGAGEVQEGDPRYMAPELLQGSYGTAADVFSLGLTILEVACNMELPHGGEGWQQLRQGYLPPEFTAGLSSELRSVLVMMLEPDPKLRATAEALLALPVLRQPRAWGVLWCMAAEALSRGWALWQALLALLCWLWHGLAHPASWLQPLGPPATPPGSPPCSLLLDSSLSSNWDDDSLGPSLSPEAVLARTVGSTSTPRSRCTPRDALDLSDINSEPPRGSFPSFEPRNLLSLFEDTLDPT
Assay: ADP-Glo assay (Myt1 kinase activity)
Conditions: not given

| IC50 [µM] | SMILES |
| --- | --- |
| < 0.01 | Cc1c(C2COC2)cnc2c(-c3ccc(F)c4[nH]ncc34)c(N)c(=O)[nH]c12 [Example 122, 3-Amino-4-(7-fluoro-1H-indazol-4-yl)-8-methyl-7-(oxetan-3-yl)-1H-1,5-naphthyridin-2-one] |
| 0.0109 | Cc1cc2[nH]c(=O)c(N)c(-c3ccc(F)c4[nH]ncc34)c2nc1C1CCNCC1 [Example 069, 3-Amino-4-(7-fluoro-1H-indazol-4-yl)-7-methyl-6-(4-piperidyl)-1H-1,5-naphthyridin-2-one] |
| 0.014 | Cc1c(F)cnc2c(-c3ccc(F)c4[nH]ncc34)c(N)c(=O)[nH]c12 [Example 135, 3-Amino-7-fluoro-4-(7-fluoro-1H-indazol-4-yl)-8-methyl-1H-1,5-naphthyridin-2-one] |
| 0.0134 | COc1nc(C2CC2)cc2[nH]c(=O)c(N)c(-c3ccc(F)c4[nH]ncc34)c12 [Example 169, 3-Amino-7-cyclopropyl-4-(7-fluoro-1H-indazol-4-yl)-5-methoxy-1H-1,6-naphthyridin-2-one] |
| 0.0107 | Cc1c(-c2nccs2)cnc2c(-c3ccc(F)c4[nH]ncc34)c(N)c(=O)[nH]c12 [Example 121, 3-Amino-4-(7-fluoro-1H-indazol-4-yl)-8-methyl-7-thiazol-2-yl-1H-1,5-naphthyridin-2-one] |
| < 0.01 | Cc1c(Br)cnc2c(-c3ccc(F)c4[nH]ncc34)c(N)c(=O)[nH]c12 [Example 115, 3-Amino-7-bromo-4-(7-fluoro-1H-indazol-4-yl)-8-methyl-1H-1,5-naphthyridin-2-one] |
| 0.0124 | Nc1c(-c2ccc(F)c3[nH]ncc23)c2nc(C3CC3)c(Cl)cc2[nH]c1=O [Example 55, 3-Amino-7-chloro-6-cyclopropyl-4-(7-fluoro-1H-indazol-4-yl)-1H-1,5-naphthyridin-2-one] |
| 0.0141 | Cc1c(OCC(F)(F)F)cnc2c(-c3ccc(F)c4[nH]ncc34)c(N)c(=O)[nH]c12 [Example 137, 3-Amino-4-(7-fluoro-1H-indazol-4-yl)-8-methyl-7-(2,2,2-trifluoroethoxy)-1H-1,5-naphthyridin-2-one] |
| 0.0151 | Cc1c(Br)nc2c(-c3ccc(F)c4[nH]ncc34)c(N)c(=O)[nH]c2c1Cl [Example 108, 3-Amino-6-bromo-8-chloro-4-(7-fluoro-1H-indazol-4-yl)-7-methyl-1H-1,5-naphthyridin-2-one] |
| < 0.01 | COc1nc2c(-c3ccc(F)c4[nH]ncc34)c(N)c(=O)[nH]c2cc1C [Example 060, 3-Amino-4-(7-fluoro-1H-indazol-4-yl)-6-methoxy-7-methyl-1H-1,5-naphthyridin-2-one] |
| 0.0212 | Cc1cc2[nH]c(=O)c(N)c(-c3ccc(F)c4[nH]ncc34)c2nc1N1CC2(CN(C)C2)C1 [Example 27, 3-Amino-4-(7-fluoro-1H-indazol-4-yl)-7-methyl-6-(6-methyl-2,6-diazaspiro[3.3]heptan-2-yl)-1H-1,5-naphthyridin-2-one] |
| 0.0118 | CCOc1cnc2c(-c3ccc(F)c4[nH]ncc34)c(N)c(=O)[nH]c2c1C [Example 140, 3-Amino-7-ethoxy-4-(7-fluoro-1H-indazol-4-yl)-8-methyl-1H-1,5-naphthyridin-2-one] |
| 0.0113 | Nc1c(-c2ccc(F)c3[nH]ncc23)c2ncc(-c3nccs3)cc2[nH]c1=O [Example 16, 3-Amino-4-(7-fluoro-1H-indazol-4-yl)-7-thiazol-2-yl-1H-1,5-naphthyridin-2-one] |
| 0.0126 | COc1ncc(F)c2[nH]c(=O)c(N)c(-c3ccc(F)c4[nH]ncc34)c12 [Example 170, 3-amino-8-fluoro-4-(7-fluoro-1H-indazol-4-yl)-5-methoxy-1H-1,6-naphthyridin-2-one] |
| 0.0188 | Cc1cc2[nH]c(=O)c(N)c(-c3ccc(F)c4[nH]ncc34)c2nc1N1CCOCC1 [Example 25, 3-Amino-4-(7-fluoro-1H-indazol-4-yl)-7-methyl-6-morpholino-1H-1,5-naphthyridin-2-one] |
| 0.013 | Cc1cc2[nH]c(=O)c(N)c(-c3ccc(F)c4[nH]ncc34)c2nc1-c1cccs1 [Example 151, 3-Amino-4-(7-fluoro-1H-indazol-4-yl)-7-methyl-6-(2-thienyl)-1H-1,5-naphthyridin-2-one] |

System: not listed separately
Assay: Human microsome stability assay
Conditions: 1 μM compound, 0.5 mg/mL liver microsomal protein, 1 mM NADPH, 37° C., 0-30 minutes

| Clearance of Human microsome [mL/min/kg] | SMILES |
| --- | --- |
| 6.15 | Cc1c(C2COC2)cnc2c(-c3ccc(F)c4[nH]ncc34)c(N)c(=O)[nH]c12 [Example 122, 3-Amino-4-(7-fluoro-1H-indazol-4-yl)-8-methyl-7-(oxetan-3-yl)-1H-1,5-naphthyridin-2-one] |
| 6.15 | CC(C)(O)c1cnc2c(-c3ccc(F)c4[nH]ncc34)c(N)c(=O)[nH]c2c1 [Example 020, 3-Amino-4-(7-fluoro-1H-indazol-4-yl)-7-(1-hydroxy-1-methyl-ethyl)-1H-1,5-naphthyridin-2-one] |
| 7.78 | Cc1cc2[nH]c(=O)c(N)c(-c3ccc(F)c4[nH]ncc34)c2nc1C1CCNCC1 [Example 069, 3-Amino-4-(7-fluoro-1H-indazol-4-yl)-7-methyl-6-(4-piperidyl)-1H-1,5-naphthyridin-2-one] |
| 8.06 | Nc1c(-c2ccc(F)c3[nH]ncc23)c2ncc(-c3nccs3)cc2[nH]c1=O [Example 016, 3-Amino-4-(7-fluoro-1H-indazol-4-yl)-7-thiazol-2-yl-1H-1,5-naphthyridin-2-one] |
| 6.15 | COc1cnc2c(-c3ccc(F)c4[nH]ncc34)c(N)c(=O)[nH]c2c1 [Example 006, 3-Amino-4-(7-fluoro-1H-indazol-4-yl)-7-methoxy-1H-1,5-naphthyridin-2-one] |
| 6.15 | Nc1c(-c2ccc(F)c3[nH]ncc23)c2ncc(N3CCOCC3)cc2[nH]c1=O [Example 019, 3-Amino-4-(7-fluoro-1H-indazol-4-yl)-7-morpholino-1H-1,5-naphthyridin-2-one] |
| 6.15 | Cc1cc2[nH]c(=O)c(N)c(-c3ccc(F)c4[nH]ncc34)c2nc1N1CCNCC1 [Example 044, 3-Amino-4-(7-fluoro-1H-indazol-4-yl)-7-methyl-6-piperazin-1-yl-1H-1,5-naphthyridin-2-one] |
| 6.15 | Nc1c(-c2cc(F)cc3[nH]ncc23)c2ncc(Cl)cc2[nH]c1=O [Example 036, 3-Amino-7-chloro-4-(6-fluoro-1H-indazol-4-yl)-1H-1,5-naphthyridin-2-one] |
| 7.47 | Cc1nc2c(-c3ccc(F)c4[nH]ncc34)c(N)c(=O)[nH]c2c(C)c1Cl [Example 056, 3-Amino-7-chloro-4-(7-fluoro-1H-indazol-4-yl)-6,8-dimethyl-1H-1,5-naphthyridin-2-one] |
| 6.15 | Nc1c(-c2cccc3[nH]ncc23)c2ncc(C3CC3)cc2[nH]c1=O [Example 034, 3-Amino-7-cyclopropyl-4-(1H-indazol-4-yl)-1H-1,5-naphthyridin-2-one] |
| 6.15 | Cc1cc2[nH]c(=O)c(N)c(-c3ccc(F)c4[nH]ncc34)c2nc1C(=O)O [Example 089, 7-Amino-8-(7-fluoro-1H-indazol-4-yl)-3-methyl-6-oxo-5H-1,5-naphthyridine-2-carboxylic acid] |
| 8.09 | Cc1cnc2c(-c3ccc(F)c4[nH]ncc34)c(N)c(=O)[nH]c2c1Cl [Example 053, 3-Amino-8-chloro-4-(7-fluoro-1H-indazol-4-yl)-7-methyl-1H-1,5-naphthyridin-2-one] |
| 6.15 | Nc1c(-c2ccc(F)c3[nH]ncc23)c2ncc(-c3ccc(F)cn3)cc2[nH]c1=O [Example 014, 3-Amino-4-(7-fluoro-1H-indazol-4-yl)-7-(5-fluoro-2-pyridyl)-1H-1,5-naphthyridin-2-one] |
| 6.22 | Cc1cnc2c(-c3cccc4[nH]ncc34)c(N)c(=O)[nH]c2c1 [Example 033, 3-Amino-4-(1H-indazol-4-yl)-7-methyl-1H-1,5-naphthyridin-2-one] |
| 6.15 | Cn1cncc1-c1cnc2c(-c3ccc(F)c4[nH]ncc34)c(N)c(=O)[nH]c2c1 [Example 008, 3-Amino-4-(7-fluoro-1H-indazol-4-yl)-7-(3-methylimidazol-4-yl)-1H-1,5-naphthyridin-2-one] |
| 6.15 | Nc1c(-c2ccc(F)c3[nH]ncc23)c2ncc(F)cc2[nH]c1=O [Example 004, 3-Amino-7-fluoro-4-(7-fluoro-1H-indazol-4-y1)-1H-1,5-naphthyridin-2-one] |
| 6.15 | Nc1c(-c2ccc(F)c3[nH]ncc23)c2ncc(-c3ccn[nH]3)cc2[nH]c1=O [Example 009, 3-Amino-4-(7-fluoro-1H-indazol-4-yl)-7-(1H-pyrazol-5-yl)-1H-1,5-naphthyridin-2-one] |
| 6.15 | COc1c(C)cnc2c(-c3ccc(F)c4[nH]ncc34)c(N)c(=O)[nH]c12 [Example 051, 3-Amino-4-(7-fluoro-1H-indazol-4-yl)-8-methoxy-7-methyl-1H-1,5-naphthyridin-2-one] |
| 8.58 | Cc1cc2[nH]c(=O)c(N)c(-c3ccc(F)c4[nH]ncc34)c2nc1NC(C)C [Example 023, 3-Amino-4-(7-fluoro-1H-indazol-4-yl)-6-(isopropylamino)-7-methyl-1H-1,5-naphthyridin-2-one] |
| 6.15 | Nc1c(-c2ccc(F)c3[nH]ncc23)c2nccc(Cl)c2[nH]c1=O [Example 050, 3-Amino-8-chloro-4-(7-fluoro-1H-indazol-4-yl)-1H-1,5-naphthyridin-2-one] |
| 6.15 | Nc1c(-c2ccc(F)c3[nH]ncc23)c2ncc(-c3ccnnc3)cc2[nH]c1=O [Example 012, 3-Amino-4-(7-fluoro-1H-indazol-4-yl)-7-pyridazin-4-yl-1H-1,5-naphthyridin-2-one] |
